This passage reports IC50 results from patent US10611766B2, “Pyrazolopyrimidine derivatives as BTK inhibitors for the treatment of cancer” (Loxo Oncology, Inc., priority 2015, dated 2020).

This assay relates to OCI-Ly10 human DLBCL cells. As to the kind of experiment: OCI-Ly10 anti-proliferative activity (Resazurin, 72 h). Type of assay: cell-based. The conditions noted are these: read-out: Proliferation OCI-Ly10-IC50. The method, then: Compounds were assayed for effects on the growth of OCI-Ly10 human DLBCL cells that are dependent on NFκB signalling. OCI-Ly10 cells were grown in suspension in T225 flasks, centrifuged and re-suspended in 2.5% FBS containing media. Cells were then plated at 7.5×10^3 cells per well in 96-well plates in varying concentrations of compound and incubated for 72 h at 37° C. An additional plate of cells to be used as the Day 0 read was seeded without compound addition, Resazurin was added to each well, incubated for 5 h and the fluorescence measured at 590 nm. After 72 h of compound treatment, Resazurin was added to each well of the compound treated plates, incubated for 5 h and the fluorescence measured at 590 nm. The IC50 was then calculated by subtracting the average Day 0 value from each well value from the treated plates, each treatment was then calculated as a percentage of the DMSO control and the percentages plotted against the inhibitor concentration to estimate the IC50 from log [Inhibitor] vs response using the Variable Slope model in Graphpad prism from Graphpad software (SanDiego, Calif.).

For `COc1ccccc1C(=O)NCc1ccc(-c2nn(C3CCC(C(=O)N(C)C)CC3)c3ncnc(N)c23)cc1` (single isomer, unassigned; isomer 1) [33-isomer 1], the IC50 lay within 0.01 to 0.1 µM.
